The results in this text go back to US20230117470A1, “SUBSTITUTED PYRAZOLE COMPOUNDS AS TOLL RECEPTOR INHIBITORS” (BRISTOL-MYERS SQUIBB COMPANY, priority 2019, published 2023).

Holding throughout (assay type): cell-based
Test [1] has as its target T1, human TLR8 (Homo sapiens, UniProt Q9NR97).
T1 construct: host or cells: HEK-Blue cells
T1 sequence (Q9NR97 27-1041): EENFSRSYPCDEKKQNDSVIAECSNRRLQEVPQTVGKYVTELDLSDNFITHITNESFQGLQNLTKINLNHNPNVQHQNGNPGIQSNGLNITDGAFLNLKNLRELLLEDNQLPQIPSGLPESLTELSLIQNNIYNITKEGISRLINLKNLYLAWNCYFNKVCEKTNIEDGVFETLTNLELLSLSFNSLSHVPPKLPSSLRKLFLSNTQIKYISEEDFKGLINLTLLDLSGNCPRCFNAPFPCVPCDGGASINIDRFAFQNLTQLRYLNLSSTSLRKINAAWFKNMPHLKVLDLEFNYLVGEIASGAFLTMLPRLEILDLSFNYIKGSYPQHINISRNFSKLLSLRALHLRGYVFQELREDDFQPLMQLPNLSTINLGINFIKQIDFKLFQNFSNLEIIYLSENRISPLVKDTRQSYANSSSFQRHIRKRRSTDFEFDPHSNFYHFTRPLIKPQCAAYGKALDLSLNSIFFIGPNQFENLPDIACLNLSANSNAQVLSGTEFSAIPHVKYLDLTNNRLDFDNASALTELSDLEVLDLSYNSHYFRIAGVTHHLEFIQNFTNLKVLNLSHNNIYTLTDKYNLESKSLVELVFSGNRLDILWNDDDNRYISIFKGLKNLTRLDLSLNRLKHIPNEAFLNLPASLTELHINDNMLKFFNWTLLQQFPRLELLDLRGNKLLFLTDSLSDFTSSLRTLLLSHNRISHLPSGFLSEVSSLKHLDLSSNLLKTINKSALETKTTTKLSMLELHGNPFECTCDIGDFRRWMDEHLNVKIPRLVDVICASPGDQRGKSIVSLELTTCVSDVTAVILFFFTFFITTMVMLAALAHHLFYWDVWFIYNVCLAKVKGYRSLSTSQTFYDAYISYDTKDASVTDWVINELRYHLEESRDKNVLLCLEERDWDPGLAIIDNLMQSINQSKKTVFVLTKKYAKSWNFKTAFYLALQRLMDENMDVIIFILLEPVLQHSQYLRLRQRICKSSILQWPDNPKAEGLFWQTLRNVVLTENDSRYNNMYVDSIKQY
The test is described as follows: TLR8 inhibition reporter assay (HEK-Blue cells, SEAP reporter, R848 stimulation). The following applies: HEK-Blue cells overexpressing human TLR8, SEAP reporter, R848 15.9 μM. An outline of the steps: (§1)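 Cells were pre-treated 30 min at room temperature with compound (final 0.05 nM–50 μM), then stimulated with gardiquimod 7.5 μM (TLR7), R848 15.9 μM (TLR8) or ODN2006 5 nM (TLR9). SEAP was read after 22 h at 37° C; percent inhibition scaled between agonist+DMSO and known-inhibitor wells.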

Test [2] has as its target T2, human TLR9 (Homo sapiens, UniProt Q9NR96).
T2 construct: host or cells: HEK-Blue cells
T2 sequence (Q9NR96 26-1032): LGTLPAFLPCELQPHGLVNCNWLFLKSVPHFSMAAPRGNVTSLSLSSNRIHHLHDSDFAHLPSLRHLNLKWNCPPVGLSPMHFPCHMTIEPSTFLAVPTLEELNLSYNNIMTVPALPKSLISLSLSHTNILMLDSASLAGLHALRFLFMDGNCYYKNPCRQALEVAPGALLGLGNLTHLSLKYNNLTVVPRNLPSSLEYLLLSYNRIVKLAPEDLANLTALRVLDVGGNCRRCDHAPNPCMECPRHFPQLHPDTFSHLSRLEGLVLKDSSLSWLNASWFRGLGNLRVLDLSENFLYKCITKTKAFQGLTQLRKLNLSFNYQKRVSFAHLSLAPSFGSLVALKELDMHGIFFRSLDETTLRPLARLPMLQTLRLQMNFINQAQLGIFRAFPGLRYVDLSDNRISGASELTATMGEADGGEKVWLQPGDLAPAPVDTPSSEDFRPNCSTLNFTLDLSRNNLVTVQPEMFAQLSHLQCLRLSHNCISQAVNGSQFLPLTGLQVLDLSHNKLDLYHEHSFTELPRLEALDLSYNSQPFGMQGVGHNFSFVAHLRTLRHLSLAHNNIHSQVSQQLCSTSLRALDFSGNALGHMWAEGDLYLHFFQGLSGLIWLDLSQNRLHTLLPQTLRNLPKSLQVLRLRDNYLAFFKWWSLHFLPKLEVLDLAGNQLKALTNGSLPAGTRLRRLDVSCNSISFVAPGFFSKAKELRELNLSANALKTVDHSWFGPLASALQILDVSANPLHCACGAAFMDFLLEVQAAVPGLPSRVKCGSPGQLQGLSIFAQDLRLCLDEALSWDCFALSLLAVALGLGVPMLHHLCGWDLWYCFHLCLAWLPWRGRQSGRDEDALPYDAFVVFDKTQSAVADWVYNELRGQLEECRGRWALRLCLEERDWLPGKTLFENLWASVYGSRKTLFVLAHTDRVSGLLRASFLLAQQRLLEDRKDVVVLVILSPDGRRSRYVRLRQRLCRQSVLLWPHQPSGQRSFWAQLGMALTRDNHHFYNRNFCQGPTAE
Nature of the test: TLR9 inhibition reporter assay (HEK-Blue cells, SEAP reporter, ODN2006 stimulation). The following applies: HEK-Blue cells overexpressing human TLR9, SEAP reporter, ODN2006 5 nM. An outline of the steps:
as §1
On the technique in general: In a reporter assay the amount or activity of a reporter protein is the signal.

Test [3] deals with T3, human TLR7 (Homo sapiens, UniProt Q9NYK1).
T3 construct: host or cells: HEK-Blue cells
T3 sequence (Q9NYK1 27-1049): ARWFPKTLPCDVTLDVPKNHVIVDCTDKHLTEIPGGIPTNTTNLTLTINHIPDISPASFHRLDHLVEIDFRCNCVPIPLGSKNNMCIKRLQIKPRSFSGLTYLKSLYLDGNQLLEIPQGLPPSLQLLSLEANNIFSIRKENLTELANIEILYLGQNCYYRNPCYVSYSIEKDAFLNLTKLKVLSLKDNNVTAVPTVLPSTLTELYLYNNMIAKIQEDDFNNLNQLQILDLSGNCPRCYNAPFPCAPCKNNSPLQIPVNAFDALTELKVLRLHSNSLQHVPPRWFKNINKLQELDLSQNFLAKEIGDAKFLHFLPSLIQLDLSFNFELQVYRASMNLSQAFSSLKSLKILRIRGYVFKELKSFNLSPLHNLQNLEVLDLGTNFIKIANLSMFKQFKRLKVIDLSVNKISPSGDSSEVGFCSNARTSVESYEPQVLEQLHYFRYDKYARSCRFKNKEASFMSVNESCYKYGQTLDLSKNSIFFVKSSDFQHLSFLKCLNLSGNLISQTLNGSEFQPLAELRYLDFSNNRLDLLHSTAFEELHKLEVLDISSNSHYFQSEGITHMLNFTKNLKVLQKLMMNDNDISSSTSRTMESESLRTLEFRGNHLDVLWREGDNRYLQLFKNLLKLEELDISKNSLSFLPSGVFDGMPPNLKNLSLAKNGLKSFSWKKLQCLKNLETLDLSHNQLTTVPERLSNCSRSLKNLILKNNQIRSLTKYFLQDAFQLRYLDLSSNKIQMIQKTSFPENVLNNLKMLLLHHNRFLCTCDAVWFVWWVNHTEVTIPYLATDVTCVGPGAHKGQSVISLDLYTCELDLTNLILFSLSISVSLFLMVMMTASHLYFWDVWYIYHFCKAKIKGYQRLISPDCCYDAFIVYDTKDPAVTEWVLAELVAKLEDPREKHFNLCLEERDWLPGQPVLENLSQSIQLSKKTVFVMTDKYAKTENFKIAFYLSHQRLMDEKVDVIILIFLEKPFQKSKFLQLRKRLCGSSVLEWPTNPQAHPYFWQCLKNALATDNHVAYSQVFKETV
The test is described as follows: TLR7 inhibition reporter assay (HEK-Blue cells, SEAP reporter, gardiquimod stimulation). The following applies: HEK-Blue cells overexpressing human TLR7, SEAP reporter, gardiquimod 7.5 μM. An outline of the steps: as §1

A value given as a limit tells only on which side of the number the result lay.

For the molecule `Cc1cc(-c2[nH]nc(-c3cccc(N)c3)c2C(C)C)cn2ncnc12` [Example 232], the concentration for half-maximal inhibition (IC50) (in general, the midpoint of a concentration-inhibition curve) is 7.87 nM in test [1], more than 50000 nM in test [2] and 4.19 nM in test [3].

Consider `Cc1cc(-c2[nH]nc(-c3ccc(N)cc3)c2C(C)C)cn2ncnc12` [Example 233], for which the 50% inhibitory concentration (IC50) was 0.59 nM in test [1], more than 50000 nM in test [2] and 2.3 nM in test [3].

Take `COc1cc(-c2[nH]nc(-c3ccc4c(c3)CCNC4)c2C(C)C)cn2ncnc12` [Example 234]: the IC50 is 59.8 nM in test [1], more than 50000 nM in test [2] and 15.1 nM in test [3].

Regarding `Cc1cc(-c2[nH]nc(-c3ccc4c(c3)CCN(C)C4)c2C(C)C)cn2ncnc12` [Example 235, 6-(4-isopropyl-5-(8-methyl-[1,2,4]triazolo[1,5-a]pyridin-6-yl)-1H-pyrazol-3-yl)-2-methyl-1,2,3,4-tetrahydroisoquinoline], the IC50 in test [1] was 1.01 nM; in test [2], 16600 nM; in test [3], 1.05 nM.

Take `Cc1cc(-c2[nH]nc(-c3cnc(N(C)C)cn3)c2C(C)C)cn2ncnc12` [Example 236]: the figures for the IC50 in test [1], in test [2] and in test [3] were 18.7 nM, 25400 nM and 1.36 nM, respectively.

For the molecule `Cc1cc(-c2[nH]nc(-c3ccc(N(C)C)nc3)c2C(C)C)cn2ncnc12` [Example 237], the figures for the concentration for half-maximal inhibition (IC50) in test [1], in test [2] and in test [3] were 0.29 nM, 5490 nM and 4.87 nM, respectively.

Consider `Cc1cc(-c2[nH]nc(-c3cncc(N(C)C)c3)c2C(C)C)cn2ncnc12` [Example 238], for which the IC50 in test [1] came to 5.96 nM; in test [2], 5370 nM; in test [3], 5.4 nM.

Consider `Cc1cc(-c2[nH]nc(-c3cncc(NC(C)C)c3)c2C(C)C)cn2ncnc12` [Example 239], for which the values for the 50% inhibitory concentration (IC50) in test [1], in test [2] and in test [3] were 0.27 nM, 9920 nM and 1.96 nM, respectively.

With `Cc1cc(-c2[nH]nc(-c3ccc(NC(C)C)nc3)c2C(C)C)cn2ncnc12` [Example 240], the IC50 in test [1] was found to be 2.82 nM; in test [2] it was 6230 nM; in test [3] it was 3.72 nM.

Consider `Cc1cc(-c2[nH]nc(-c3cnc(NC(C)C)cn3)c2C(C)C)cn2ncnc12` [Example 241], for which the IC50 in test [1] is 3.19 nM; in test [2], more than 50000 nM; in test [3], 8.06 nM.

In the case of `Cc1cc(-c2[nH]nc(-c3cccc(NC(C)C)c3)c2C(C)C)cn2ncnc12` [Example 242], the IC50 in test [1] was 16.1 nM; in test [2], more than 50000 nM; in test [3], 47.1 nM.

On to `Cc1cc(-c2[nH]nc(-c3ccc(N(C)C)cc3)c2C(C)C)cn2ncnc12` [Example 243], for which the half-maximal inhibitory concentration (IC50) in test [1] stood at 2.1 nM; in test [2] it was 29800 nM; in test [3] it was 16.4 nM.

Take `Cc1cc(-c2[nH]nc(-c3ccc(NC(C)C)cc3)c2C(C)C)cn2ncnc12` [Example 244]: the figures for the IC50 in test [1], in test [2] and in test [3] were 17.5 nM, 25300 nM and 44 nM, respectively.

As to `Cc1cc(-c2[nH]nc(-c3cccc(N(C)C)c3)c2C(C)C)cn2ncnc12` [Example 245], the IC50 in test [1] amounted to 0.65 nM; in test [2], 22900 nM; in test [3] it was 2.6 nM.

As for `Cc1cc(-c2[nH]nc(-c3ccc4c(c3)CCN(C(C)C)C4)c2C(C)C)cn2ncnc12` [Example 246], the IC50 in test [1] was 154 nM; in test [2] it was more than 50000 nM; in test [3] it was 60.8 nM.

Regarding `Cc1cc(-c2[nH]nc(-c3ccc4c(c3)CCN(C3COC3)C4)c2C(C)C)cn2ncnc12` [Example 247], the half-inhibitory concentration (IC50) came out at 4.42 nM in test [1], 42500 nM in test [2] and 5.87 nM in test [3].

Turning to `Cc1cc(-c2[nH]nc(-c3ncc4c(n3)CCN(C)C4)c2C(C)C)cn2ncnc12` [Example 248], the 50% inhibitory concentration (IC50) is 12 nM in test [1], 14000 nM in test [2] and 8.33 nM in test [3].

Take `CCN1CCc2nc(-c3n[nH]c(-c4cc(C)c5ncnn5c4)c3C(C)C)ncc2C1` [Example 249]: the values for the concentration for half-maximal inhibition (IC50) in test [1], in test [2] and in test [3] were 1.19 nM, 19800 nM and 6.34 nM, respectively.

Consider `Cc1cc(-c2[nH]nc(-c3ncc4c(n3)CCN(C(C)C)C4)c2C(C)C)cn2ncnc12` [Example 250], for which the IC50 in test [1] stood at 43.6 nM; in test [2], 43300 nM; in test [3], 46.8 nM.

As to `Cc1cc(-c2[nH]nc(-c3ncc4c(n3)CCN(C3COC3)C4)c2C(C)C)cn2ncnc12` [Example 251], the half-maximal inhibitory concentration (IC50) in test [1] worked out at 2.68 nM; in test [2] it was 45300 nM; in test [3], 10.6 nM.

On to `Cc1cc(-c2[nH]nc(-c3nc4c(s3)CN(C(C)C)CC4)c2C(C)C)cn2ncnc12` [Example 252], for which the 50% inhibitory concentration (IC50) in test [1] was 35.8 nM; in test [2], more than 50000 nM; in test [3] it was 67.9 nM.

With `Cc1cc(-c2[nH]nc(-c3nc4c(s3)CN(C3COC3)CC4)c2C(C)C)cn2ncnc12` [Example 253], the half-inhibitory concentration (IC50) worked out at 3.01 nM in test [1], 23000 nM in test [2] and 4.7 nM in test [3].
